The target of assay [1] is T1, human SCD1 (Homo sapiens, UniProt O00767).
T1 construct: expressed in transfected cells; host or cells: yeast strain with the OLE1 gene deleted, carrying a plasmid (grown in SD-Ura)
T1 sequence (O00767 1-359): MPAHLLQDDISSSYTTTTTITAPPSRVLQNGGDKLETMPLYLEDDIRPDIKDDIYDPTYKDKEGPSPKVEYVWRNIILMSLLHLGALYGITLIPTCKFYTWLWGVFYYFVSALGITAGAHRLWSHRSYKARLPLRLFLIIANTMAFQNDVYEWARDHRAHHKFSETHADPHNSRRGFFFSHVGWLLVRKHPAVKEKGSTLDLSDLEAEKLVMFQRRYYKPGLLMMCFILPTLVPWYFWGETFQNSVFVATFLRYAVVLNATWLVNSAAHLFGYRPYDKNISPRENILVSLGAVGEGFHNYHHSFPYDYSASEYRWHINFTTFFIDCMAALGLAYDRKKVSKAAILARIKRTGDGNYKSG
Briefly: Yeast growth assay, strain expressing human SCD1 as the sole desaturase (reduced growth as surrogate for SCD inhibition). Type of assay: cell-based. As to conditions: growth (OD600) after 40 h at 30° C.

Assay [2] has as its target T2, human SCD5 (Homo sapiens, UniProt Q86SK9).
T2 construct: expressed in transfected cells; host or cells: yeast strain with the OLE1 gene deleted, carrying a plasmid (grown in SD-Ura)
T2 sequence (Q86SK9 1-330): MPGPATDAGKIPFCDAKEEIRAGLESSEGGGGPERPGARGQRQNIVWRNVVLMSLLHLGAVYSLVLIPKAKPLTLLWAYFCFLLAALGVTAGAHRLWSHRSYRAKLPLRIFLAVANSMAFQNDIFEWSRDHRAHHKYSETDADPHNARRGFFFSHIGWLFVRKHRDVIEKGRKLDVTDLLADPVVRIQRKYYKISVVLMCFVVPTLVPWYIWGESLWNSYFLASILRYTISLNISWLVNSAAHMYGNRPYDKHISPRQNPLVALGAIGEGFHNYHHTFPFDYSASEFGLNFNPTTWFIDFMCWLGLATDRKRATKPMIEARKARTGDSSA
Briefly: Yeast growth assay, strain expressing human SCD5 as the sole desaturase (reduced growth as surrogate for SCD inhibition). Type of assay: cell-based. As to conditions: growth (OD600) after 40 h at 30° C.

SMILES strings stand for the structures. Where only a bound is given, the exact number is not on record here.

Turning to `CN1N=C(C(=O)Nc2ncc(Cc3cccc(F)c3)s2)CCC1=O` [Compound 221, N-(5-(3-fluorobenzyl)thiazol-2-yl)-1-methyl-6-oxo-1,4,5,6-tetrahydropyridazine-3-carboxamide], the IC50 in assay [1] and in assay [2] was greater than 45 µM each time.

The compound `CN1N=C(c2nc3cc(Cc4cccc(Cl)c4)cnc3[nH]2)CCC1=O` [Compound 255] showed an IC50 in assay [1] greater than 45 µM.

Regarding `Cn1cc(C(=O)Nc2ccc(COc3cccc(Cl)c3)cn2)ccc1=O` [Compound 263], in assay [2], the midpoint of inhibition, the IC50, lay at 0.17 µM.

Turning to `Cc1ccc(Cc2ccc(C(=O)Nc3ccc(=O)n(C)n3)nc2)cc1C` [Compound 312], the IC50 was determined as 1.82 µM in assay [1] and 0.03 µM in assay [2].

For the compound `CC1(C)CN(C(=O)c2cccc(Cc3ccc(F)cc3)n2)CCO1` [Compound 339], the values for the IC50 in assay [1] and in assay [2] were greater than 45 µM and 17.7 µM, respectively.

For the compound `O=C(Nc1ccc(Cc2cccc(F)c2)cn1)c1cc[nH]c(=O)n1` [Compound 425], the half-maximal inhibitory concentration (IC50) in assay [1] and in assay [2] was greater than 45 µM each time.

With `O=C(Nc1ccc(Cc2cccc(F)c2)cn1)c1cnc2[nH]c(=O)oc2c1` [Compound 463], the IC50 in assay [1] and in assay [2] was greater than 45 µM throughout.

`Cn1cc(C(=O)Nc2ccc(Cc3ccc(F)c(F)c3)cn2)ncc1=O` [Compound 673]: the IC50 in assay [1] is 3.1 µM; in assay [2] it was 0.36 µM.

(Values after patent US12180221B2, “Compounds and uses thereof” (JANSSEN PHARMACEUTICA NV, priority 2018, dated 2024).)
